Reference: patent US20230414616A1, “LINE-1 INHIBITORS TO TREAT DISEASE” (Transposon Therapeutics, Inc., priority 2020, published 2023)

Test system: human LINE-1
Test: Human LINE-1 retrotransposition assay (HeLa cell-based dual-luciferase reporter)
Settings: HeLa cells, reporter plasmid pYX017, 72 h incubation, Firefly/Renilla
Experimental: Representative Compounds of the Disclosure were tested for inhibition of retrotransposition activity of human LINE-1 in HeLa cells according to the following procedure.
HeLa cervical cancer cells were cultivated at 37° C. in a humidified 5% CO2 incubator in Dulbecco's Modified Eagle's Medium (DMEM)—high glucose, with 4500 mg/L glucose, L-glutamine, sodium pyruvate and sodium bicarbonate (Sigma), supplemented with 10% of heat inactivated fetal bovine serum (Thermo Fisher).
Assays were performed using reporter plasmid pYX017 as described (Xie, et al., 2011) with several modifications. The reporter assay was performed in 96-well white optical bottom plates. HeLa cells were seeded in wells 24 h prior to transfection and compound treatment so that cells were approximately 30% confluent on the day of transfection. Different cell plating densities were tested and a density of 2×10^3 cells was determined to be optimal.
Compounds were resuspended in DMSO. Serial dilutions (1:3) were prepared in DMSO. Medium containing different concentrations of the compounds were prepared by adding 2 μl of the compound dilution to 1 ml of the culture medium. The final concentration of DMSO in the medium was 0.2%.
FuGENE® HD transfection reagent (Promega, E2311, Lot 382574 and Lot 397842) was used to transfect the plasmids into the cells. […] Different ratios of transfection reagent to DNA were tested and a ratio of 3:1 was determined to be optimal. […] A 72 h incubation time was determined to be optimal.
Luciferase reporter activity was quantified with the Dual-Luciferase® Reporter Assay System (Promega) according to manufacturer's instructions for multiwell plates except that cells were lysed directly on the multiwell plate with 30 μl of the passive lysis buffer (PLB) for 20 min at room temperature, with gentle shaking to ensure complete cell lysis.
Firefly and Renilla luciferase signals were measured using a SpectraMax i3x Multi-Mode Microplate Reader. […] Relative L1 activity is calculated as Firefly/Renilla *1000 or Firefly/Renilla *10,000. […]

IC50 (HeLa, 72 h) [nM]	SMILES	IC50 [nM]
830	C#C[C@]1(CO)O[C@@H](n2cc(F)c(=O)[nH]c2=O)C[C@@H]1O [Compound 15]	–
2.6	CC[C@]1(CO)O[C@@H](n2cnc3c(O)nc(N)nc32)C[C@@H]1O [Compound 27]	–
–	CC(C)OC(=O)[C@H](C)N[P@](=O)(CO[C@H](C)Cn1cnc2c(N)ncnc21)Oc1ccccc1 [tenofovir alafenamide, reference compound]	10
